Laboratory results: patent US5753704A, “Therapeutic compositions comprising unsaturated dioic acids or derivatives thereof” (Unichema Chemie B.V., priority 1992, dated 1998)
Entries after “also recorded” stand apart in the source; their conditions may differ. Values belong to the compound of their own block, whether it stands above or below them.

Columns and labels:
Staphylococcus aureus = experiment: MIC, agar dilution technique (Table 3); type: cell-based
Method: (§1) The Minimum Inhibitory Concentration (MIC) of each of various unsaturated dicarboxylic acid mixtures was determined in the presence and absence of 10% Intralipid (Kabi Pharmacia, Inc.) using the agar dilution technique for susceptibility of 32 strains of Propionibacterium acnes and of 32 strains of various genera of aerobic bacteria. The method was as set out below.
(§2) A 5% stock solution for each agent was prepared by adding 10 grams of the dioic acid material to 200 milliliters of double strength Tryptic Soy Broth (TSB), (Baltimore Biological Laboratories). The pH of each solution was adjusted to 7.0±0.2 with sodium hydroxide.
(§3) For each organic acid two sets of 200 ml capacity bottle/flasks were numbered 1 to 9. To each bottle was added 50 cc of double strength TSB. From the 5% stock solution, 50 cc of TSB were transferred to bottles #1 and #2. Serial transfers of 50 cc are made from bottle #2 through to bottle #8. Bottle #9 of each set contained only 50 cc of double strength TSB, without any dicarboxylic acid. To all 18 bottles were added 2 grams of granulated agar (BBL).
(§4) All bottles were autoclaved at 121° C., 15 psi for 15 minutes and then held at 50° C. in a water bath.
(§5) To one set of bottles #1-9 were added 50 cc of hot, sterile water. The bottles were swirled to mix the contents and 25 cc was poured into each of four petri dishes and allowed to solidify. To the second set of bottles were added 50 cc of Intralipid (pre-warmed to 50° C). The contents were then mixed and poured as above. Standard inocula of the test organisms were prepared by matching the bacterial suspension in 0.85% PSS (physiological saline solution) to a 0.5 McFarland Standard and diluting ten-fold to yield 10^7 CFU (colony forming units). The inocula were loaded into 32 wells of a steers replicator. The multi-prong inoculator delivers 0.001 to 0.002 cc resulting in a final inoculum of 10^4 CFU per spot.
(§6) Plates were inoculated from the lowest to highest concentration (to reduce the effects of "carry-over" of the inoculum), and allowed to dry. The plates were then inverted and incubated at 35° C. for 24 hours. Plates inoculated with Propionibacterium acnes strains were incubated under anaerobic conditions for seven days at 35° C.
(§7) The agent-free control plates (#9) were examined at the end of the incubation for viability and signs of contamination. End-point MIC values were determined by observing the plate of lowest concentration of agent that inhibited visible micro-organism growth.

[1] = tested on: Brevibacterium epidermidis; experiment: MIC, agar dilution technique (Table 3); type: cell-based
Method: as §1, §2, §3, §4, §5, §6, §7

[2] = tested on: Corynebacterium minutissium; experiment: MIC, agar dilution technique (Table 3); type: cell-based
Method: as §1, §2, §3, §4, §5, §6, §7

Micrococcus sedentarius = experiment: MIC, agar dilution technique (Table 3); type: cell-based; conditions: Micrococcus sedentarius ATCC 27574
Method: as §1, §2, §3, §4, §5, §6, §7

[3] = tested on: Staphylococcus epidermidis; experiment: MIC, agar dilution technique (Table 3); type: cell-based
Method: as §1, §2, §3, §4, §5, §6, §7

Propionibacterium acnes = experiment: MIC, agar dilution technique (Table 3); type: cell-based
Method: as §1, §2, §3, §4, §5, §6, §7

Micrococcus luteus = experiment: MIC, agar dilution technique (Table 3); type: cell-based
Method: as §1, §2, §3, §4, §5, §6, §7

Escherichia coli = experiment: MIC, agar dilution technique (Table 3); type: cell-based; conditions: Escherichia coli ATCC 25922
Method: as §1, §2, §3, §4, §5, §6, §7

Pseudomonas aeruginosa = experiment: MIC, agar dilution technique (Table 3); type: cell-based; conditions: Pseudomonas aeruginosa ATCC 27853
Method: as §1, §2, §3, §4, §5, §6, §7

P. ACNES ATCC 25746 = experiment: MIC's for long chain dioic acids against P. acnes (Table 4); type: cell-based, Propionibacterium acnes; conditions: for MIC: P. acnes ATCC 25746
Method: as §1, §2, §3, §4, §5
Plates were inoculated from the lowest to highest concentration (to reduce the effects of "carry-over" of the inoculum), and allowed to dry. The plates were then inverted and incubated at 35° C. for 24 hours. […]
as §7
A similar experiment was performed, using the same method, to compare the degree of inhibitory activity (for P. acnes) of azelaic acid, the C18:1 dioic acid (obtained from a substrate comprising oleic acid), a mixture of C18.1 fatty (mono-carboxylic) acid, the corresponding C18:1 and C18:2 dioic acids (obtained from a substrate comprising Linoleic acid), and the C16:1 dioic acid (obtained from a substrate comprising palmitoleic acid). The MICs for azelaic acid and the C18.1 dioic acid were essentially as before, confirming the previous results. The corresponding fatty acid had very little activity.
In experiment 4, the degree of inhibition of the azelaic acid control, and therefore of the test samples also, was slightly less than that observed in previous experiments.

Candida albicans = experiment: MIC, agar dilution technique (Table 3); type: cell-based; conditions: Candida albicans ATCC 18804
thioredoxin reductase = conditions: cited from earlier work
[4] = tested on: 32 strains of Propionibacterium acnes and 32 strains of various genera of aerobic bacteria; experiment: Antimicrobial activity, summary over the range of micro-organisms; type: cell-based
Method: as §1, §2
as §3, with “(BBL). […]” for “(BBL).”
The agent-free control plates (#9) were examined at the end of the incubation for viability and signs of contamination. End-point MIC values were determined by observing the plate of lowest concentration of agent that inhibited visible micro-organism growth. […]

[5] = Staphylococcus aureus ATCC 25923
[6] = Staphylococcus aureus ATCC 29213
[7] = Staphylococcus aureus ATCC 35556
[8] = Brevibacterium epidermidis ATCC 35514
[9] = Brevibacterium epidermidis NCDO 2285
[10] = Corynebacterium minutissium ATCC 23347
[11] = Corynebacterium minutissium ATCC 23348
[12] = Corynebacterium minutissium ATCC 23349
[13] = Staphylococcus epidermidis ATCC 14490
[14] = Staphylococcus epidermidis ATCC 31432
[15] = Staphylococcus epidermidis ATCC 35894
[16] = Propionibacterium acnes ATCC 6919
[17] = Propionibacterium acnes ATCC 29399
[18] = Expt. 4, increased incubation period of 18 days

Structure (SMILES): O=C(O)CCCCCCCC(=O)O [Azelaic acid, azelaic acid, reference compound]
MIC (Staphylococcus aureus; [5]): 2.5%
MIC (Staphylococcus aureus; [6]): 2.5%
MIC (Staphylococcus aureus; [7]): 2.5%
MIC [1, 8]: > 2.5%
MIC [1, 9]: > 2.5%
MIC [2, 10]: > 2.5%
MIC [2, 11]: > 2.5%
MIC [2, 12]: > 2.5%
MIC (Micrococcus sedentarius): 2.5%
MIC [3, 13]: > 2.5%
MIC [3, 14]: > 2.5%
MIC [3, 15]: > 2.5%
MIC (Propionibacterium acnes; [16]): 1.25%
MIC (Propionibacterium acnes; [17]): 1.25%
MIC (Micrococcus luteus; Micrococcus luteus ATCC 9341): > 2.5%
MIC (Micrococcus luteus; Micrococcus luteus ATCC 15957): > 2.5%
MIC (Micrococcus luteus; Micrococcus luteus ATCC 27141): 2.5%
MIC (Escherichia coli): 2.5%
MIC (Pseudomonas aeruginosa): > 2.5%
MIC (P. ACNES ATCC 25746; Expt. 1, incubation 7 days): 5%
MIC (P. ACNES ATCC 25746; Expt. 2, incubation 7 days): 5%
MIC (P. ACNES ATCC 25746; Expt. 3, incubation 7 days): 5%
MIC (P. ACNES ATCC 25746; [18]): > 5%
MIC (Candida albicans): > 2.5%
inhibition of thioredoxin reductase (thioredoxin reductase): inhibits thioredoxin reductase

Structure (SMILES): CCCCCCCC/C=C\CCCCCCCC(=O)O [C18:1 Fatty acid, oleic acid, reference compound]
inhibitory activity compared with azelaic acid (P. ACNES ATCC 25746; P. acnes): less active than azelaic acid
MIC (P. ACNES ATCC 25746; Expt. 3, incubation 7 days): > 5%

MIC (P. ACNES ATCC 25746; [18]): 0.16%
Structure (SMILES): O=C(O)CCCCCC=CCCCCCCCC(=O)O [C16:1 dioic acid ex Palmitoleic acid]

MIC (Staphylococcus aureus; [5]): 0.07%
MIC (Staphylococcus aureus; Staphylococcus aureus ATCC 25923, + "Intralipid"): 0.15%
MIC (Staphylococcus aureus; [6]): 0.15%
MIC (Staphylococcus aureus; Staphylococcus aureus ATCC 29213, + "Intralipid"): 0.31%
MIC (Staphylococcus aureus; [7]): 0.07%
MIC (Staphylococcus aureus; Staphylococcus aureus ATCC 35556, + "Intralipid"): 0.31%
MIC [1, 8]: 0.15%
MIC ([1]; Brevibacterium epidermidis ATCC 35514, + "Intralipid"): 0.15%
MIC [1, 9]: 0.15%
MIC ([1]; Brevibacterium epidermidis NCDO 2285, + "Intralipid"): 0.15%
MIC [2, 10]: 0.15%
MIC ([2]; Corynebacterium minutissium ATCC 23347, + "Intralipid"): 0.15%
MIC [2, 11]: 0.15%
MIC ([2]; Corynebacterium minutissium ATCC 23348, + "Intralipid"): 0.15%
MIC [2, 12]: 0.15%
MIC ([2]; Corynebacterium minutissium ATCC 23349, + "Intralipid"): 0.15%
MIC (Micrococcus sedentarius): 0.15%
MIC (Micrococcus sedentarius; + "Intralipid"): 0.07%
MIC [3, 13]: 0.31%
MIC ([3]; Staphylococcus epidermidis ATCC 14490, + "Intralipid"): 0.31%
MIC [3, 14]: 0.31%
MIC ([3]; Staphylococcus epidermidis ATCC 31432, + "Intralipid"): 0.31%
MIC [3, 15]: 0.31%
MIC ([3]; Staphylococcus epidermidis ATCC 35894, + "Intralipid"): 0.31%
MIC (Propionibacterium acnes; [16]): 0.04%
MIC (Propionibacterium acnes; Propionibacterium acnes ATCC 6919, + "Intralipid"): 0.02%
MIC (Propionibacterium acnes; [17]): 0.04%
MIC (Propionibacterium acnes; Propionibacterium acnes ATCC 29399, + "Intralipid"): 0.02%
MIC (Micrococcus luteus; Micrococcus luteus ATCC 9341): 0.15%
MIC (Micrococcus luteus; Micrococcus luteus ATCC 9341, + "Intralipid"): 0.07%
MIC (Micrococcus luteus; Micrococcus luteus ATCC 15957): 0.15%
MIC (Micrococcus luteus; Micrococcus luteus ATCC 15957, + "Intralipid"): 0.07%
MIC (Micrococcus luteus; Micrococcus luteus ATCC 27141): 0.15%
MIC (Micrococcus luteus; Micrococcus luteus ATCC 27141, + "Intralipid"): 0.07%
MIC (Escherichia coli): > 2.5%
MIC (Escherichia coli; + "Intralipid"): > 2.5%
MIC (Pseudomonas aeruginosa): > 2.5%
MIC (Pseudomonas aeruginosa; + "Intralipid"): > 2.5%
MIC (P. ACNES ATCC 25746; Expt. 1, incubation 7 days): 0.04%
MIC (P. ACNES ATCC 25746; Expt. 2, incubation 7 days): 0.04%
MIC (P. ACNES ATCC 25746; Expt. 3, incubation 7 days): 0.04%
MIC (P. ACNES ATCC 25746; [18]): 0.08%
MIC (Candida albicans): > 2.5%
MIC (Candida albicans; + "Intralipid"): > 2.5%
Structure (SMILES): O=C(O)CCCCCCC/C=C\CCCCCCCC(=O)O [C18:1 dioic acid ex Oleic acid]
effect of the presence or absence of "Intralipid" on MIC ([4]; 10% Intralipid, listed as C18:1 mono-unsaturated compound): increased the MIC for taph. aureus; also recorded: decreased the MIC for P. acnes and M. luteus
anti-microbial activity compared with azelaic acid ([4]; Table 3 micro-organisms): many times greater than that for azelaic acid
activity relative to azelaic acid (P. ACNES ATCC 25746; P. acnes, fold of the activity of azelaic acid): ~100 ×
